The test system of one data set is human melanocytes. The data set can be described thus: melanin content in L-tyrosine-stimulated human melanocytes. In kind it is cell-based. The following applies: 3 days, L-tyrosine 2 mM, stimulated control = 100%. On the procedure:
(§1) With the aim of studying the inhibition of molecules in melanin, an in vitro assay was conducted on human melanocytes using similar conditions to those described in the tyrosinase inhibition assay. L-tyrosine is used to stimulate melanogenic activity in cells with the aim of extracting the melanin. Here, only the molecules with the best tyrosinase-inhibiting activity were tested (formulas (II) and (III)). In this experiment, the concentration of molecules used is the highest possible taking into account the melanocyte cytotoxicity value, 1.25 mM for the molecule of formula (II) and 0.33 mM for the molecule of formula (III).
Thus, human melanocytes are cultured in culture medium (#PCS-200-013, ATCC). L-tyrosine (2 mM) was added together with the molecule treatment. All the conditions were prepared in triplicate. After incubating the cells with the treatments for 3 days, they were trypsinised and lysated in 1M NaOH. Cell lysate absorbance at 340 nm was measured using a spectrophotometer. The absorbance value is directly proportional to melanin content.

The next data set concerns melanocyte. The data set can be described thus: melanocyte cytotoxicity. The conditions noted are these: human melanocytes. The data set is classed as cell-based. Here is the method: as §1
Data set [1] can be described thus: water solubility compared to DMSO by HPLC. The data set is classed as physicochemical. The following applies: 50 mg/ml; for Percentage of water solubility compared to the samples dissolved in DMSO: 1 hour stirring at room temperature, filtered, HPLC. On the procedure:
Solutions are prepared in DMSO and in water for each of the molecules. All the samples are prepared at a final concentration of 50 mg/ml. After stirring for 1 hour at room temperature, the samples are filtered and a HPLC is performed.
In order to calculate the percentage of solubility of each of the molecules, the area of the peak of the sample dissolved in water and in DMSO obtained by HPLC is determined. The results are given as a percentage of solubility of the compound dissolved in water in the compound dissolved in DMSO.

For another data set, the target named is T1, tyrosinase (Homo sapiens, UniProt P14679).
T1 construct: the cells were trypsinised and lysated in PBS pH 7.0 with 1% Triton X-100; host or cells: human melanocytes (primary), stimulated with 2 mM L-tyrosine; Triton X-100 lysate
T1 sequence (P14679 19-529): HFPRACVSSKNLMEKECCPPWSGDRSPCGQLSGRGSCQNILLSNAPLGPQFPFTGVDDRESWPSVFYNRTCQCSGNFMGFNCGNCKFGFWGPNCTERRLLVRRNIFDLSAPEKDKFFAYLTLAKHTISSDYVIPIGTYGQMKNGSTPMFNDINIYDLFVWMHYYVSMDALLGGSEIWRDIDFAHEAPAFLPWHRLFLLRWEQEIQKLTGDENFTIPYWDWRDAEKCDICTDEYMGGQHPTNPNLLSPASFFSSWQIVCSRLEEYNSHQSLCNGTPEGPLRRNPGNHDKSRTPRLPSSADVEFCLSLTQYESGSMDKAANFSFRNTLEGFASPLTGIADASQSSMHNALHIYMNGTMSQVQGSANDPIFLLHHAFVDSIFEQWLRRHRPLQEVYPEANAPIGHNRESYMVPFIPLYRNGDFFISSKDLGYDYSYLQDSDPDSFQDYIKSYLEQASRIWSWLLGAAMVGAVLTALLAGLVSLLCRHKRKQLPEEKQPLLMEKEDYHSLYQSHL
The data set can be described thus: tyrosinase activity in lysate of L-tyrosine-stimulated human melanocytes (L-DOPA/MBTH). In kind it is biochemical. The following applies: L-tyrosine-stimulated control = 100%. Here is the method: Given the results, an in vitro assay was conducted on human melanocytes. In order to stimulate melanogenic activity in the cells they were treated with L-tyrosine. This compound, in addition to being a substrate of the tyrosinase enzyme, key to melanin synthesis, is capable of activating cell receptors that activate the melanogenesis-regulating signalling pathways (Slominski A, et al. L-tyrosine and L-dihydroxyphenylalanine as hormone-like regulators of melanocyte functions. Pigment Cell Melanoma Res. 2012; 25(1):14-27). This condition is aimed at stimulating melanogenesis in melanocytes for the purpose of extracting tyrosinase and testing the effect of the molecules of the invention.
Thus, human melanocytes were cultured in culture medium (#PCS-200-013, ATCC) and L-tyrosine (2 mM) for 3 days. After the stimulation treatment, the cells were trypsinised and lysated in PBS pH 7.0 with 1% Triton X-100. The cell lysate, which contains tyrosinase, was incubated together with the molecules of the invention at different concentrations (0.1 and 1 mM), L-DOPA and MBTH (Winder A J and Harris H. New assays for the tyrosine hydroxylase and dopa oxidase activities of tyrosinase. Eur. J. Biochem. 1991; 198(2):317-26). L-DOPA acts as a substrate for tyrosinase in the enzyme reaction and MBTH is a compound that bonds to the […] formed from the oxidation of L-DOPA, generating a colour complex. Each of the conditions used was prepared in triplicate. Lastly, absorbance at 492 nm was monitored using a spectrophotometer every 10 min for 2-5 h.

Where “and” joins values, the source holds several entries; their conditions need not be identical. Equal values may be shown once. Where only a bound is given, the exact number is not on record here.

The molecule `O=C(/C=C/c1ccc(O)c(S(=O)(=O)O)c1)c1ccc(O)c(S(=O)(=O)O)c1` [II, 5-[(E)-2-(4-hydroxy-3-sulfobenzoyl)-1-ethenyl]-2-hydroxybenzenesulfonic Acid] displayed a melanin content in the data set on human melanocytes (1.25 mM) of 78±7%. For the same molecule, the “highest possible concentration taking into account the melanocyte cytotoxicity value” with melanocyte was 1.25 mM. Besides, in data set [1], the “water solubility (in words)” value is listed as “highly soluble” and the “Percentage of water solubility compared to the samples dissolved in DMSO” value (from here on “Percentage of water solubility”) came out at 81%. Also, the “Percentage of tyrosinase activity” value at tyrosinase (0.1 mM) is 97% and 97 ± 0%. The “Percentage of tyrosinase activity” value at tyrosinase (1 mM) is 55% and 55 ± 1%.
Regarding `O=C(/C=C/c1ccc(O)cc1)c1ccc(O)c(S(=O)(=O)[O-])c1.[Na+]` [V M = Na, 5-[(E)-3-(p-hydroxyphenyl)acryloyl]-2-sodium Hydroxybenzenesulfonate], in data set [1], the “Percentage of water solubility” value was 100%. For the same molecule, the “Percentage of tyrosinase activity” value on tyrosinase (0.1 mM) is above 97%; on tyrosinase (1 mM), 82 ± 3%.
In the same order, the values of `O=C(/C=C/c1ccc(O)c(S(=O)(=O)[O-])c1)c1ccc(O)c(S(=O)(=O)[O-])c1.[K+].[K+]` [IV M = K, 5-[(E)-2-(4-hydroxy-3-sulfonatebenzoyl)-1-ethenyl]-2-hydroxybenzenesulfonate, Dipotassium Salt] are 100%, above 97% and 97 ± 1%.
`O=C(/C=C/c1ccc(O)cc1)c1ccc(O)c(S(=O)(=O)O)c1` [III, 5-[(E)-3-(p-hydroxyphenyl)acryloyl]-2-hydroxybenzenesulfonic Acid]: in the data set with human melanocytes (0.33 mM), the melanin content worked out at 49±7%. Moreover, in the data set with melanocyte, the “highest possible concentration taking into account the melanocyte cytotoxicity value” was 0.33 mM. Besides, in data set [1], the “water solubility (in words)” value is listed as “highly soluble” and the “Percentage of water solubility” value turned out to be 84%. Further, the “Percentage of tyrosinase activity” value on tyrosinase (0.1 mM) is 82% and 82 ± 2%. Besides, on tyrosinase (1 mM), the “Percentage of tyrosinase activity” value was 44% and 44 ± 1%.
As for `CCN(CC)CC.O=C(/C=C/c1ccc(O)cc1)c1ccc(O)c(S(=O)(=O)O)c1` [V M = (C2H5)3N, 5-[(E)-3-(p-hydroxyphenyl)acryloyl]-2-triethylammonium hydroxybenzenesulfonate], in data set [1], the “Percentage of water solubility” value is given as 100%. Besides, the “Percentage of tyrosinase activity” value is given as above 97% on tyrosinase (0.1 mM) and 83 ± 0% at tyrosinase (1 mM).
On to `O=C(CCc1ccc(O)c(S(=O)(=O)[O-])c1)c1ccc(O)c(S(=O)(=O)[O-])c1.[K+].[K+]` [VI M = K, 2-hydroxy-5-[2-(4-hydroxy-3-sulfonatebenzoyl)ethyl]-benzenesulfonate, Dipotassium Salt], for which the “Percentage of water solubility” value in data set [1] came to 100%. For the same molecule, the figures for the “Percentage of tyrosinase activity” value on tyrosinase (0.1 mM) and at tyrosinase (1 mM) were above 97% and 91 ± 3%, respectively.
Consider `O=C(/C=C/c1ccc(O)cc1)c1ccc(O)cc1` [Reference molecule, (E)-1,3-bis(p-hydroxyphenyl)-2-propen-1-one, reference compound], for which, in data set [1], the “water solubility (in words)” value was “fully water soluble” and the “Percentage of water solubility” value is 0%. Moreover, at tyrosinase (0.1 mM), the “Percentage of tyrosinase activity” value is given as 97 ± 3%. For the same molecule, the “Percentage of tyrosinase activity” value at tyrosinase (1 mM) is recorded as 84 ± 4%.

The values are drawn from patent US12558302B2, “Tyrosinase-inhibiting molecules and dermopharmaceutical composition that includes them” (MESOESTETIC PHARMA GROUP, S.L, priority 2021, dated 2026).
